From US10897891B2, “Compositions and methods for prolonged cell storage” (Board of Regents, The University of Texas System, priority 2015, dated 2021)
Entries after “also recorded” stand apart in the source; their conditions may differ.

Assays:
platelets [1] = test: Hydrogen peroxide induced platelet aggregation (platelet 'aging', Experiment B); format: cell-based, human; details: 2% PEG-400 in PBS, 1 hr room temperature
Procedure: Platelet aggregation using epinephrine. Ten ml of 24 hr old platelet residual was derived from one platelet unit and split into two 5 ml aliquots in 50 ml tubes. One sample received 10% phosphate buffered saline (PBS) and one 10% PBS containing PEG400 such that the final PEG concentration was 2%. These samples were placed on a flat-bed rotator with a 1 inch stroke, at 70 cycles per min, at 5° C. for 7 days. 100 ul of these platelet suspensions were added to wells of a 96 well U bottom plate. Epinephrine 0.1 mg/ml (Pharmaceutical NDC 0409-4921-34-44-048-DK) was diluted with PBS and 100 ul was added to test wells to give a finial concentration of 10 mcg/ml. The plate was rotated overnight to allow aggregation. The extent of aggregation was read using an ELISA plate reader (Molecular Devises, Vmax) at 690 nm wavelength. Platelets, with and without PEG, were also aggregated by the addition of 10% H2O2. Hydrogen peroxide is not an agonist for the platelet receptor; however exposure to hydrogen peroxide mimics the platelet storage lesion though membrane ageing. In this study, the inventors tested 2 day old residual platelets form one donor unit by splitting the material in to a 24 well cluster plate. […] Table 3 presents additional cryoprotective agents scored for the effect on microscopic degranulation (20× high contrast lighting as above). […]

platelets [2] = test: Cholesterol membrane capping with the fluorescent cholesterol probe filipin (Experiment F); format: cell-based, human; details: 5° C. overnight
Procedure: (Note 1: Stock solutions were prepared in DMSO that was rigorously dried with an equal volume of A-3 molecular sieve that had been regenerated at 300° C. overnight. The resultant filipin stock 25 mg/ml DMSO solution was prepared in a nitrogen atmosphere and frozen at −70° C. to limit water induced hydrolysis.)
Approximately 3 ml of residual pooled platelets were obtained after 72 hr at standard storage conditions. 100 ul of platelets were mixed with 100 ul of fresh filipin (300 ug/ml in PBS+10%, DMSO) in each of 12 wells of a 24 well cluster plate and incubated at room temperature for 35 min. (DMSO was included to assist with membrane loading of the highly insoluble filipin molecule.) All wells were then diluted by adding 2.5 ml of PBS and incubated another 15 min to dilute unbound filipin and allow removal of DMSO by dilution. The plate was next centrifuged at 2500 g for 20 min in a pre-warmed centrifuge at 22° C. All wells were gently aspirated and the PBS was replaced with 3 ml of control or test platelets as follows:
All wells were next incubated 20 min at room temperature to allow DMSO to equilibrate. (Note: the final DMSO concentration in the Control wells or the PEG-400 only wells would be 6 parts in 10,000 or 0.06%.) Next the plate was held at 5° C. overnight and in the morning centrifuged in a 5° C. equilibrated centrifuge at 2,500 g for 20 min. Cold 4% Formalin/PBS was carefully added and the plate returned to 5° C. for overnight incubation. At 18 hr the plate was allowed to fix again at room temperature in the dark for 4 hours. Subsequently the formalin was aspirated and the plate washed with 4 changes of 2 ml of PBS. Finally, excess fluid was removed and the wells were photographed with an inverted fluorescent microscope. Note 2: Filipin is rapidly photo-bleached with the UV, thus the light intensity was lowered with a barrier filter of ˜20% was used. This filter setting was used consistently for all photographs. All photographs were taken under the same camera conditions. No post photographic image alterations were made. […]

[3] = dogs; cited from earlier work
[4] = primates, for 11 weeks; cited from earlier work

For Polyethylene glycol [PEG-400], which “platelet aggregation after 10% hydrogen peroxide vs PBS control” value (platelets [1]) is on record?
The value was “less aggregation of the platelets”.

And the “filipin clustering / cholesterol capping vs PBS control” value (platelets [2]; 2% PEG-400 in PBS)?
The value was “less filipin clustering; also recorded: less cholesterol capping”.

And the “filipin clustering / cholesterol capping vs PBS control” value (platelets [2]; 4% PEG-400 in PBS)?
Its value is “less cholesterol capping”.

What about the “filipin clustering / cholesterol capping vs PBS control” value (platelets [2]; 4% PEG-400 in PBS, listed as PEG) of the same substance?
Its value is “less filipin clustering”.

And the toxic endpoint [3]?
Its toxic endpoint is ~8 g/kg.

What about the “toxic endpoint for the whole animal” value [3] of the same substance?
Its value is 0.8%.

What about the tolerated level [4] of the same substance?
The tolerated level was 0.4 % of body weight.
